Source: patent US20240382564A1, “Methods and Compositions for Treating Muscular Dystrophy and Memory Impairment” (Allysta Pharmaceuticals, Inc., priority 2023, published 2024)
Entries after “also recorded” stand apart in the source; their conditions may differ. Where no end group is shown, it is not given here. [ ]: non-standard residue; d: D form. Nva = CCC[C@H](N)C(=O)O

How the values were obtained:
D2.mdx mice [1] = test: Hippocampal western blotting; assay type: in vivo, mouse; details: hippocampus
Procedure: Male D2.mdx mice originated from a colony maintained at York University (Toronto, Canada) and sourced from Jackson Laboratories (Stock Number 013141, Bar Harbor, United States). Mice were treated daily from days 7 to 28 of age with ALY688 at 15 mg/kg b.w. (D2.mdx-ALY688) or saline control (D2.mdx-VEH). This age was chosen given it captures an early stage of disease progression in cardiac and skeletal muscle. Mice were sacrificed 20-24 hr after the last dose. Breeding of wildtype mice was unsuccessful. Instead, three-week-old wildtype DBA/2J WT mice (D2A) were obtained from Jackson Laboratories (Stock number 000671, Bar Harbor, United States) and allowed to acclimatize for one week before sacrifice. Mice were housed in standard 12:12-hr light:dark cycles and were allowed access to standard rodent chow and water ad libitum. 4 days prior to sacrifice, all groups underwent novel object recognition acclimatization and testing as described below. Mice were anesthetized under 5% isoflurane vaporized in medical air (21% oxygen) at a flow rate of 2 L/min and then maintained at 2-3% prior to euthanasia by exsanguination. Muscles were removed and used for another investigation (under review at the time of this submission). The right and left hippocampus were then quickly dissected from the brain with a portion placed immediately into ice-cold BIOPS, containing (in mM): 50 MES Hydrate, 7.23 K2EGTA, 2.77 CaK2EGTA, 20 imidazole, 0.5 dithiothreitol, 20 taurine, 5.77 ATP, 15 PCr, and 6.56 MgCl2·6H2O (pH 7.1) or flash-frozen in liquid nitrogen and stored at −80° C. for RNA isolation and western blotting. All experiments and procedures were approved by the Animal Care Committee at York University (AUP Approval Number 2016-18) in accordance with the Canadian Council on Animal Care.
Hippocampus tissue (collected from the same mice utilized in high-resolution respirometry experiments) was homogenized in cold lysis buffer containing (in mM; 20 Tris/HCl, 150 NaCl, 1 EDTA, 1 EGTA, 1% Triton X-100, 2.5 Na4O7P2, 1 Na3VO4, pH 7.0) supplemented with protease and phosphatase inhibitors (Sigma) according to the protocol established in Hughes MC et al. “Early myopathy in Duchenne muscular dystrophy is associated with elevated mitochondrial H2O2 emission during impaired oxidative phosphorylation.” Journal of Cachexia, Sarcopenia and Muscle. 2019; 10:643-61. […] For detection of total AMPK, p-AMPK, p-ULK1, p62, and LC3BII/I, proteins were transferred to a 0.2 μm low fluorescence polyvinylidene difluoride membrane using a Bio-Rad Trans Blot Turbo. […] The same washing protocol was repeated and then membranes were detected using infrared imaging (LI-COR CLx; LI-COR, Lincoln, NE, USA) and quantified by densitometry (ImageJ, http://imagej.nih.gov/ij/). […]

D2.mdx mice [2] = test: Novel object recognition test; assay type: in vivo, mouse; details: 15 mg/kg b.w. daily, days 7 to 28 of age
Procedure: Male D2.mdx mice originated from a colony maintained at York University (Toronto, Canada) and sourced from Jackson Laboratories (Stock Number 013141, Bar Harbor, United States). Mice were treated daily from days 7 to 28 of age with ALY688 at 15 mg/kg b.w. (D2.mdx-ALY688) or saline control (D2.mdx-VEH). This age was chosen given it captures an early stage of disease progression in cardiac and skeletal muscle. Mice were sacrificed 20-24 hr after the last dose. Breeding of wildtype mice was unsuccessful. Instead, three-week-old wildtype DBA/2J WT mice (D2A) were obtained from Jackson Laboratories (Stock number 000671, Bar Harbor, United States) and allowed to acclimatize for one week before sacrifice. Mice were housed in standard 12:12-hr light:dark cycles and were allowed access to standard rodent chow and water ad libitum. 4 days prior to sacrifice, all groups underwent novel object recognition acclimatization and testing as described below. Mice were anesthetized under 5% isoflurane vaporized in medical air (21% oxygen) at a flow rate of 2 L/min and then maintained at 2-3% prior to euthanasia by exsanguination. […]
The novel object recognition test (NOR) was performed as previously described in literature. […] Sessions were recorded with a cell-phone video camera secured above the apparatus. […] Discrimination ratio (DR) was calculated as follows: DR=(Time(object 2)−Time(object 1))/Total time.

Substance: [dN]IP[Nva]LY[dS]FA[dS]-NH2 [ALY688]
- degree of AMPK activation (p-AMPK or p-AMPK/AMPK) (D2.mdx mice [1]): not altered
- total AMPK protein (D2.mdx mice [1]): lower
- protein content of total raptor (D2.mdx mice [1]; increased in D2.mdx vs WT): completely prevented the increases
- protein content of total tau (D2.mdx mice [1]; increased in D2.mdx vs WT): completely prevented the increases
- recognition memory (discrimination index, NOR test) (D2.mdx mice [2]): completely prevented; also recorded: improved recognition memory; also recorded: normalized
